The values that follow come from US8053585B2, “Protecting group for carboxylic acids that can be photolyzed by visible light” (Cornell Research Foundation, Inc., priority 2006, dated 2011).

Each structure is given as a SMILES string.

This assay deals with GluR6 glutamate receptor. As to the kind of experiment: Whole-cell current recording with cell-flow method, HEK 293 cells expressing GluR6. In kind it is cell-based. Conditions: 1 mM DECM, −60 mV, pH 7.4, 22° C. The source says: In whole-cell current recording experiments with DECM-caged glutamate, HEK 293 cells stably transfected with cDNA encoding the GluR6 were used. In whole-cell current recording experiments with DECM-caged glycine, HEK 293 cells were transiently transfected with the cDNA of the α1-subunit of the human glycine receptor by using the Polyfect™ transfection reagent (Qiagen GmbH, D-40724, Hilden, Germany). The cDNA of the α1-subunit was kindly provided by Professor H. Betz (Max-Plank-Institute for brain Research, Frankfurt, Germany). The cells were co-transfected with cDNA encoding the green fluorescent protein (pGreen Lantern plasmid, Life Technologies, Gaitherberg, Md.) to detect transfected cells (Chalfie et al., “Green Fluorescent Protein as a Marker for Gene Expression,” Science 263:802-805 (1994), which is hereby incorporated by reference in its entirety).
The cells were used for electrophysiological experiments between 24 and 72 h after each passage. Whole-cell currents evoked by glutamate or glycine (100 μM) were recorded using the whole-cell configuration (Hamill et al., “Improved Patch-Clamp Techniques for High-Resolution Current Recording From Cells and Cell-Free Membrane Patches,” Pfluegers Arch 391:85-100 (1981), which is hereby incorporated by reference in its entirety) at room temperature, −60 mV, and pH 7.4. The experiments using DECM-caged glutamate were carried out in the absence or presence of 2 mM DECM-caged glutamate (FIG. 5A) or 1 mM 7-N,N-diethylamino-4-hydroxymethylcoumarin (2) (FIG. 5B). Alternatively, the experiments using DECM-caged glycine were carried out in the absence or presence of 1 mM DECM-caged-glycine (FIG. 10). The solution in the recording pipet contained 120 mM CsCl, 10 mM EGTA, and 10 mM HEPES, adjusted to pH 7.4. The HEK cell bath solution contained 150 mM NaCl, 1 mM CaCl2, 10 mM HEPES, pH 7.4. The resistance of the recording electrode filled with buffer solution was typically 3-5 MΩ and the series resistance was 5-6 MΩ. The cells were held at a constant transmembrane voltage of −60 mV and room temperature (22° C.). […]

In the case of `CCN(CC)c1ccc2c(CO)cc(=O)oc2c1` [DECM, 7-N,N-Diethylamino-4-hydroxymethylcoumarin], the “whole-cell current evoked by 100 μM glutamate, presence vs absence of compound” value is given as “do not inhibit”.
